According to ChEMBL document CHEMBL1909294, “Translating clinical findings into knowledge in drug safety evaluation--drug induced liver injury prediction system (DILIps)” (PLoS Comput Biol, 2011):

Experiments:
Hepatotoxicity [1] = system: Hepatotoxicity;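 for HepSE Combined Scores: combined hepatic side effect score as listed in the training data of the Drug Induced Liver Injury Prediction System (DILIps)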;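 for HepSE cholecystitis: Cholecystitis-related hepatic side effect score drawn from the DILIps (drug-induced liver injury prediction) training data set; call rule not given here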;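 for HepSE cholelithiasis: hepatic side effect score for cholelithiasis, drawn from the DILIps training data for predicting drug-induced liver injury; call rule not given here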;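 for HepSE cirrhosis: cirrhosis hepatic side effect score taken from the DILIps (drug-induced liver injury prediction) training set; call rule not given here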;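 for HepSE elevated liver function tests: hepatic side effect score for raised liver function tests, as recorded in the DILIps training set used for predicting drug-induced liver injury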;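 for HepSE hepatitis: Hepatitis-related hepatic side effect score taken from the training data of DILIps, a prediction system for drug-induced liver injury; call rule not given here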; for HepSE liver disease: call rule not given here
Hepatotoxicity [2] = system: Hepatotoxicity; remark: listed apart in the source;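 for HepSE Combined Scores: combined hepatic side effect score as listed in the training data of the Drug Induced Liver Injury Prediction System (DILIps)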;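 for HepSE cholecystitis: Cholecystitis-related hepatic side effect score drawn from the DILIps (drug-induced liver injury prediction) training data set; call rule not given here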;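 for HepSE cholelithiasis: hepatic side effect score for cholelithiasis, drawn from the DILIps training data for predicting drug-induced liver injury; call rule not given here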;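 for HepSE cirrhosis: cirrhosis hepatic side effect score taken from the DILIps (drug-induced liver injury prediction) training set; call rule not given here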;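 for HepSE elevated liver function tests: hepatic side effect score for raised liver function tests, as recorded in the DILIps training set used for predicting drug-induced liver injury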;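 for HepSE hepatitis: Hepatitis-related hepatic side effect score taken from the training data of DILIps, a prediction system for drug-induced liver injury; call rule not given here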; for HepSE liver disease: call rule not given here
Hepatotoxicity [3] = system: Hepatotoxicity; remark: listed apart in the source;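 for HepSE Combined Scores: combined hepatic side effect score as listed in the training data of the Drug Induced Liver Injury Prediction System (DILIps)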;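 for HepSE cholelithiasis: hepatic side effect score for cholelithiasis, drawn from the DILIps training data for predicting drug-induced liver injury; call rule not given here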;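 for HepSE cirrhosis: cirrhosis hepatic side effect score taken from the DILIps (drug-induced liver injury prediction) training set; call rule not given here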;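 for HepSE elevated liver function tests: hepatic side effect score for raised liver function tests, as recorded in the DILIps training set used for predicting drug-induced liver injury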;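 for HepSE hepatitis: Hepatitis-related hepatic side effect score taken from the training data of DILIps, a prediction system for drug-induced liver injury; call rule not given here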; for HepSE liver disease: call rule not given here
Hepatotoxicity [4] = system: Hepatotoxicity; remark: listed apart in the source;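 for HepSE Combined Scores: combined hepatic side effect score as listed in the training data of the Drug Induced Liver Injury Prediction System (DILIps)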;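 for HepSE cholelithiasis: hepatic side effect score for cholelithiasis, drawn from the DILIps training data for predicting drug-induced liver injury; call rule not given here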;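 for HepSE cirrhosis: cirrhosis hepatic side effect score taken from the DILIps (drug-induced liver injury prediction) training set; call rule not given here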;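 for HepSE elevated liver function tests: hepatic side effect score for raised liver function tests, as recorded in the DILIps training set used for predicting drug-induced liver injury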;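 for HepSE hepatitis: Hepatitis-related hepatic side effect score taken from the training data of DILIps, a prediction system for drug-induced liver injury; call rule not given here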; for HepSE liver disease: call rule not given here
Hepatotoxicity [5] = system: Hepatotoxicity; remark: listed apart in the source; for HepSE liver disease: call rule not given here
Hepatotoxicity [6] = system: Hepatotoxicity; remark: listed apart in the source; for HepSE liver disease: call rule not given here
Hepatotoxicity [7] = system: Hepatotoxicity; remark: listed apart in the source
Hepatotoxicity [8] = system: Hepatotoxicity; remark: listed apart in the source
Hepatotoxicity [9] = system: Hepatotoxicity; remark: listed apart in the source
Hepatotoxicity [10] = system: Hepatotoxicity; remark: listed apart in the source
Hepatotoxicity [11] = system: Hepatotoxicity; remark: listed apart in the source
Hepatotoxicity [12] = system: Hepatotoxicity; remark: listed apart in the source
Hepatotoxicity [13] = system: Hepatotoxicity; remark: listed apart in the source
Hepatotoxicity [14] = system: Hepatotoxicity; remark: listed apart in the source

| Structure (SMILES) | HepSE_cirrhosis (Hepatotoxicity [1]) | HepSE_Combined Scores (Hepatotoxicity [2]) | HepSE_liver disease (Hepatotoxicity [3]) | HepSE_hepatitis (Hepatotoxicity [4]) | HepSE_elevated liver function tests (Hepatotoxicity [5]) | HepSE_cholelithiasis (Hepatotoxicity [6]) | HepSE_hepatic necrosis (Hepatotoxicity [7]) | HepSE_bilirubinemia (Hepatotoxicity [8]) | HepSE_cholecystitis (Hepatotoxicity [9]) | HepSE_jaundice (Hepatotoxicity [10]) | HepSE_hepatic failure (Hepatotoxicity [11]) | HepSE_liver function tests abnormal (Hepatotoxicity [12]) | HepSE_liver fatty (Hepatotoxicity [13]) | HepSE_hepatomegaly (Hepatotoxicity [14]) | other results |
| --- | --- | --- | --- | --- | --- | --- | --- | --- | --- | --- | --- | --- | --- | --- | --- |
| c1ccc2c(CC3=NCCN3)cccc2c1 [NAPHAZOLINE] | 0 | 0 | 0 | 0 | 0 | 0 | 0 | 0 | 0 | 0 | 0 | 0 | 0 | 0 |  |
| CC(C)[C@H]1CC[C@H](C(=O)N[C@H](Cc2ccccc2)C(=O)O)CC1 [NATEGLINIDE] | 0 | 3 | 1 | 1 | 0 | 0 | 0 | 0 | 0 | 1 | 0 | 0 | 0 | 0 |  |
| OC(CNCC(O)C1CCc2cc(F)ccc2O1)C1CCc2cc(F)ccc2O1 (configuration not stated) [NEBIVOLOL] | 0 | 0 | 0 | 0 | 0 | 0 | 0 | 0 | 0 | 0 | 0 | 0 | 0 | 0 |  |
| CCCc1c2oc(C(=O)[O-])cc(=O)c2cc2c(=O)cc(C(=O)[O-])n(CC)c12.[Na+].[Na+] [NEDOCROMIL SODIUM] | 0 | 0 | 0 | 0 | 0 | 0 | 0 | 0 | 0 | 0 | 0 | 0 | 0 | 0 |  |
| CCc1nn(CCCN2CCN(c3cccc(Cl)c3)CC2)c(=O)n1CCOc1ccccc1 [NEFAZODONE] | 0 | 3 | 0 | 1 | 0 | 0 | 1 | 0 | 0 | 0 | 0 | 1 | 0 | 0 |  |
| COc1nc(N)nc2c1ncn2[C@@H]1O[C@H](CO)[C@@H](O)[C@@H]1O [NELARABINE] | 0 | 0 | 0 | 0 | 0 | 0 | 0 | 0 | 0 | 0 | 0 | 0 | 0 | 0 |  |
| Cc1ccnc2c1NC(=O)c1cccnc1N2C1CC1 [NEVIRAPINE] | 0 | 6 | 1 | 1 | 0 | 0 | 1 | 0 | 0 | 1 | 1 | 1 | 0 | 0 |  |
| COC(=O)C1=C(C)NC(C)=C(C(=O)OCCN(C)Cc2ccccc2)C1c1cccc([N+](=O)[O-])c1 (configuration not stated) [NICARDIPINE] | 0 | 0 | 0 | 0 | 0 | 0 | 0 | 0 | 0 | 0 | 0 | 0 | 0 | 0 |  |
| CN1CCC[C@H]1c1cccnc1 [NICOTINE] |  |  |  |  |  |  |  |  |  |  |  |  |  |  | HepSE_cirrhosis (Hepatotoxicity [1]; Liver): 0; HepSE_Combined Scores (Hepatotoxicity [2]; Liver): 0; HepSE_liver disease (Hepatotoxicity [3]; Liver): 0; HepSE_hepatitis (Hepatotoxicity [4]; Liver): 0; HepSE_elevated liver function tests (Hepatotoxicity [5]; Liver): 0; HepSE_cholelithiasis (Hepatotoxicity [6]; Liver): 0; HepSE_hepatic necrosis (Hepatotoxicity [7]; Liver): 0; HepSE_bilirubinemia (Hepatotoxicity [8]; Liver): 0; HepSE_cholecystitis (Hepatotoxicity [9]; Liver): 0; HepSE_jaundice (Hepatotoxicity [10]; Liver): 0; HepSE_hepatic failure (Hepatotoxicity [11]; Liver): 0; HepSE_liver function tests abnormal (Hepatotoxicity [12]; Liver): 0; HepSE_liver fatty (Hepatotoxicity [13]; Liver): 0; HepSE_hepatomegaly (Hepatotoxicity [14]; Liver): 0 |
| COC(=O)C1=C(C)NC(C)=C(C(=O)OC)C1c1ccccc1[N+](=O)[O-] [NIFEDIPINE] | 0 | 2 | 0 | 1 | 0 | 0 | 0 | 0 | 0 | 1 | 0 | 0 | 0 | 0 |  |
| CC1(C)NC(=O)N(c2ccc([N+](=O)[O-])c(C(F)(F)F)c2)C1=O [NILUTAMIDE] |  |  |  |  |  |  |  |  |  |  |  |  |  |  | HepSE_cirrhosis (Hepatotoxicity [1]; Liver): 0; HepSE_Combined Scores (Hepatotoxicity [2]; Liver): 1; HepSE_liver disease (Hepatotoxicity [3]; Liver): 0; HepSE_hepatitis (Hepatotoxicity [4]; Liver): 1; HepSE_elevated liver function tests (Hepatotoxicity [5]; Liver): 0; HepSE_cholelithiasis (Hepatotoxicity [6]; Liver): 0; HepSE_hepatic necrosis (Hepatotoxicity [7]; Liver): 0; HepSE_bilirubinemia (Hepatotoxicity [8]; Liver): 0; HepSE_cholecystitis (Hepatotoxicity [9]; Liver): 0; HepSE_jaundice (Hepatotoxicity [10]; Liver): 0; HepSE_hepatic failure (Hepatotoxicity [11]; Liver): 0; HepSE_liver function tests abnormal (Hepatotoxicity [12]; Liver): 0; HepSE_liver fatty (Hepatotoxicity [13]; Liver): 0; HepSE_hepatomegaly (Hepatotoxicity [14]; Liver): 0 |
| COCCOC(=O)C1=C(C)NC(C)=C(C(=O)OC(C)C)C1c1cccc([N+](=O)[O-])c1 (configuration not stated) [NIMODIPINE] | 0 | 2 | 0 | 1 | 0 | 0 | 0 | 0 | 0 | 1 | 0 | 0 | 0 | 0 |  |
| O=C1CN=C(c2ccccc2)c2cc([N+](=O)[O-])ccc2N1 [NITRAZEPAM] | 0 | 0 | 0 | 0 | 0 | 0 | 0 | 0 | 0 | 0 | 0 | 0 | 0 | 0 |  |
